28 compounds from US20230365592A1 (Agios Pharmaceuticals, Inc., priority 2022, published 2023) can be followed below.

In the assay the target is T1, human PAH with the R408W mutation (Homo sapiens, UniProt P00439, R408W).
T1 construct: expressed in transfected cells
T1 sequence (P00439 1-452 R408W): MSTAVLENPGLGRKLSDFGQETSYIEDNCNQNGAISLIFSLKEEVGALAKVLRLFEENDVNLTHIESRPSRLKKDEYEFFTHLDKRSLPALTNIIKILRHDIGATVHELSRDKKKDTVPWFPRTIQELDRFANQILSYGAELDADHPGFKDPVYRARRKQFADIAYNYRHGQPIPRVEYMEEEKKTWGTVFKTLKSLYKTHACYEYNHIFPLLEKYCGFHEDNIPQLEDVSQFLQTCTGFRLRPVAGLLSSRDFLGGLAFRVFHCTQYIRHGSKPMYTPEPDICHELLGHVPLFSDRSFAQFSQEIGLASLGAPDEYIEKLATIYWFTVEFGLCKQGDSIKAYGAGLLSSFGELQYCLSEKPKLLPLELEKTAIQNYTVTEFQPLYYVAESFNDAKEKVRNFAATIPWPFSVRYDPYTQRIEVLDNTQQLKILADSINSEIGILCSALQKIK
The assay is described as follows: Cell Based Phenylalanine Flux Assay.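 Also: after compound treatment, cells received sepiapterin plus isotope-labelled Phenylalanine for 4 hours, then labelled Tyrosine in the medium was quantified, 10-point 2-fold dilution series run in duplicate.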 The following applies: A375 cells expressing human R408W PAH; 24 hrs compound incubation; 13C-Tyrosine by LC-MS; average where tested multiple times; read-out: AC50.
Broadly, the AC50 is the midpoint of the concentration-response curve, whichever way the signal moves. Take `O=C(c1nnc(-c2ccccn2)o1)N1CCc2[nH]cnc2[C@H]1c1cc2ccccn2n1` [Example 605, (S)-(4-(pyrazolo[1,5-a]pyridin-2-yl)-6,7-dihydro-1H-imidazo[4,5-c]pyridin-5(4H)-yl)(5-(pyridin-2-yl)-1,3,4-oxadiazol-2-yl)methanone]: the AC50 lay within 500 to 1000 nM.

For `Cc1ncoc1C(=O)N1CCc2[nH]cnc2[C@H]1c1cc2ccccn2n1` [Example 606, (S)-(4-methyloxazol-5-yl)(4-(pyrazolo[1,5-a]pyridin-2-yl)-6,7-dihydro-1H-imidazo[4,5-c]pyridin-5(4H)-yl)methanone], the AC50 is less than 500 nM.

Consider `Cc1ncoc1C(=O)N1CCc2[nH]cnc2[C@@H]1c1cc2ccccn2n1` [Example 607, (R)-(4-methyloxazol-5-yl)(4-(pyrazolo[1,5-a]pyridin-2-yl)-6,7-dihydro-1H-imidazo[4,5-c]pyridin-5(4H)-yl)methanone], for which the AC50 is more than 5000 nM.

With `O=C(Cc1nc(C(F)(F)F)cs1)N1CCc2[nH]cnc2[C@H]1c1cc2ccccn2n1` [Example 608, (S)-1-(4-(pyrazolo[1,5-a]pyridin-2-yl)-6,7-dihydro-1H-imidazo[4,5-c]pyridin-5(4H)-yl)-2-(4-(trifluoromethyl)thiazol-2-yl)ethanone], the AC50 lay within 1000 to 5000 nM.

On to `O=C(Cc1nc(C(F)(F)F)cs1)N1CCc2[nH]cnc2[C@@H]1c1cc2ccccn2n1` [Example 609, (R)-1-(4-(pyrazolo[1,5-a]pyridin-2-yl)-6,7-dihydro-1H-imidazo[4,5-c]pyridin-5(4H)-yl)-2-(4-(trifluoromethyl)thiazol-2-yl)ethanone], for which the concentration at half-maximal activity (AC50) was more than 5000 nM.

As to `O=C(c1ocnc1C(F)(F)F)N1CCc2[nH]cnc2[C@H]1c1cc2ccccn2n1` [Example 610, (S)-(4-(pyrazolo[1,5-a]pyridin-2-yl)-6,7-dihydro-1H-imidazo[4,5-c]pyridin-5(4H)-yl)(4-(trifluoromethyl)oxazol-5-yl)methanone], the AC50 is less than 500 nM.

As to `O=C(c1ocnc1C(F)(F)F)N1CCc2[nH]cnc2[C@@H]1c1cc2ccccn2n1` [Example 611, (R)-(4-(pyrazolo[1,5-a]pyridin-2-yl)-6,7-dihydro-1H-imidazo[4,5-c]pyridin-5(4H)-yl)(4-(trifluoromethyl)oxazol-5-yl)methanone], the AC50 fell in the range of 1000 to 5000 nM.

On to `CC(F)(F)c1ncc(C(=O)N2CCc3[nH]cnc3[C@H]2c2cc3ccccn3n2)s1` [Example 612, (S)-(2-(1,1-difluoroethyl)thiazol-5-yl)(4-(pyrazolo[1,5-a]pyridin-2-yl)-6,7-dihydro-1H-imidazo[4,5-c]pyridin-5(4H)-yl)methanone], for which the AC50 was less than 500 nM.

As to `O=C(CC1CC1)N1CCc2[nH]cnc2[C@H]1c1cc2ccccn2n1` [Example 614, (S)-2-cyclopropyl-1-(4-(pyrazolo[1,5-a]pyridin-2-yl)-6,7-dihydro-1H-imidazo[4,5-c]pyridin-5(4H)-yl)ethanone], the AC50 is less than 500 nM.

For `O=C(CC1CC1)N1CCc2[nH]cnc2[C@@H]1c1cc2ccccn2n1` [Example 615, (R)-2-cyclopropyl-1-(4-(pyrazolo[1,5-a]pyridin-2-yl)-6,7-dihydro-1H-imidazo[4,5-c]pyridin-5(4H)-yl)ethanone], the AC50 is 1000 to 5000 nM.

`O=C(c1nnc(-c2ncccc2F)o1)N1CCc2[nH]cnc2[C@H]1c1cc2ccccn2n1` [Example 616, (S)-(5-(3-fluoropyridin-2-yl)-1,3,4-oxadiazol-2-yl)(4-(pyrazolo[1,5-a]pyridin-2-yl)-6,7-dihydro-1H-imidazo[4,5-c)pyridin-5(4H)-yl)methanone]: the AC50 lay in the range of 500 to 1000 nM.

Consider `O=C(c1nnc(-c2ncccc2F)o1)N1CCc2[nH]cnc2[C@@H]1c1cc2ccccn2n1` [Example 617, (R)-(5-(3-fluoropyridin-2-yl)-1,3,4-oxadiazol-2-yl)(4-(pyrazolo[1,5-a]pyridin-2-yl)-6,7-dihydro-1H-imidazo[4,5-c]pyridin-5(4H)-yl)methanone], for which the concentration at half-maximal activity (AC50) was more than 5000 nM.

For `O=C(c1ocnc1C1CC1)N1CCc2[nH]cnc2[C@H]1c1cc2ccccn2n1` [Example 618, (S)-(4-cyclopropyloxazol-5-yl)(4-(pyrazolo[1,5-a]pyridin-2-yl)-6,7-dihydro-1H-imidazo[4,5-c]pyridin-5(4H)-yl)methanone], the half-maximal activity concentration (AC50) is less than 500 nM.

Take `O=C(c1ocnc1C1CC1)N1CCc2[nH]cnc2[C@@H]1c1cc2ccccn2n1` [Example 619, (R)-(4-cyclopropyloxazol-5-yl)(4-(pyrazolo[1,5-a]pyridin-2-yl)-6,7-dihydro-1H-imidazo[4,5-c]pyridin-5(4H)-yl)methanone]: the AC50 is 1000 to 5000 nM.

`O=C(c1nnc(C2CC2)o1)N1CCc2[nH]cnc2[C@H]1c1cc2ccccn2n1` [Example 620, (S)-(5-cyclopropyl-1,3,4-oxadiazol-2-yl)(4-(pyrazolo[1,5-a]pyridin-2-yl)-6,7-dihydro-1H-imidazo[4,5-c]pyridin-5(4H)-yl)methanone]: the AC50 lay within 1000 to 5000 nM.

`O=C(c1nnc(C2CC2)o1)N1CCc2[nH]cnc2[C@@H]1c1cc2ccccn2n1` [Example 621, (R)-(5-cyclopropyl-1,3,4-oxadiazol-2-yl)(4-(pyrazolo[1,5-a]pyridin-2-yl)-6,7-dihydro-1H-imidazo[4,5-c]pyridin-5(4H)-yl)methanone]: the AC50 is more than 5000 nM.

For `O=C(c1oc(-c2ccccn2)nc1C1CC1)N1CCc2[nH]cnc2[C@@H]1c1cc2ccccn2n1` [Example 623, (R)-(4-cyclopropyl-2-(pyridin-2-yl)oxazol-5-yl)(4-(pyrazolo[1,5-a]pyridin-2-yl)-6,7-dihydro-1H-imidazo[4,5-c]pyridin-5(4H)-yl)methanone], the AC50 lay in the range of 1000 to 5000 nM.

With `CC(C)(O)c1nc(C2CC2)c(C(=O)N2CCc3[nH]cnc3[C@H]2c2cc3ccccn3n2)o1` [Example 624, (S)-(4-cyclopropyl-2-(2-hydroxypropan-2-yl)oxazol-5-yl)(4-(pyrazolo[1,5-a]pyridin-2-yl)-6,7-dihydro-1H-imidazo[4,5-c]pyridin-5(4H)-yl)methanone], the AC50 lay in the range of 1000 to 5000 nM.

On to `CC(C)(O)c1nc(C2CC2)c(C(=O)N2CCc3[nH]cnc3[C@@H]2c2cc3ccccn3n2)o1` [Example 625, (R)-(4-cyclopropyl-2-(2-hydroxypropan-2-yl)oxazol-5-yl)(4-(pyrazolo[1,5-a]pyridin-2-yl)-6,7-dihydro-1H-imidazo[4,5-c]pyridin-5(4H)-yl)methanone], for which the concentration at half-maximal activity (AC50) is 1000 to 5000 nM.

Take `Cn1cc(-c2nnc(C(=O)N3CCc4[nH]cnc4[C@H]3c3cc4ccccn4n3)o2)cn1` [Example 626, (S)-(5-(1-methyl-1H-pyrazol-4-yl)-1,3,4-oxadiazol-2-yl)(4-(pyrazolo[1,5-a]pyridin-2-yl)-6,7-dihydro-1H-imidazo[4,5-c]pyridin-5(4H)-yl)methanone]: the AC50 is 1000 to 5000 nM.

Turning to `CC(C)(O)c1nc(C(F)(F)F)c(C(=O)N2CCc3[nH]cnc3[C@H]2c2cc3ccccn3n2)o1` [Example 628, (S)-(2-(2-hydroxypropan-2-yl)-4-(trifluoromethyl)oxazol-5-yl)(4-(pyrazolo[1,5-a]pyridin-2-yl)-6,7-dihydro-1H-imidazo[4,5-c)pyridin-5(4H)-yl)methanone], the AC50 was less than 500 nM.

As to `CC(C)(O)c1nc(C(F)(F)F)c(C(=O)N2CCc3[nH]cnc3[C@@H]2c2cc3ccccn3n2)o1` [Example 629, (R)-(2-(2-hydroxypropan-2-yl)-4-(trifluoromethyl)oxazol-5-yl)(4-(pyrazolo[1,5-a]pyridin-2-yl)-6,7-dihydro-1H-imidazo[4,5-c]pyridin-5(4H)-yl)methanone], the concentration at half-maximal activity (AC50) is 1000 to 5000 nM.

In the case of `O=C(c1ocnc1C(F)F)N1CCc2[nH]cnc2[C@H]1c1cc2ccccn2n1` [Example 630, (S)-(4-(difluoromethyl)oxazol-5-yl)(4-(pyrazolo[1,5-a]pyridin-2-yl)-6,7-dihydro-1H-imidazo[4,5-c]pyridin-5(4H)-yl)methanone], the AC50 was less than 500 nM.

Turning to `O=C(c1ocnc1C(F)F)N1CCc2[nH]cnc2[C@@H]1c1cc2ccccn2n1` [Example 631, (R)-(4-(difluoromethyl)oxazol-5-yl)(4-(pyrazolo[1,5-a]pyridin-2-yl)-6,7-dihydro-1H-imidazo[4,5-c]pyridin-5(4H)-yl)methanone], the AC50 fell in the range of 1000 to 5000 nM.

For `O=C(c1oc(C2CC2)nc1C(F)F)N1CCc2[nH]cnc2[C@H]1c1cc2ccccn2n1` [Example 632, (S)-(2-cyclopropyl-4-(difluoromethyl)oxazol-5-yl)(4-(pyrazolo[1,5-a]pyridin-2-yl)-6,7-dihydro-1H-imidazo[4,5-c]pyridin-5(4H)-yl)methanone], the AC50 was less than 500 nM.

For the compound `O=C(c1oc(C2CC2)nc1C(F)F)N1CCc2[nH]cnc2[C@@H]1c1cc2ccccn2n1` [Example 633, (R)-(2-cyclopropyl-4-(difluoromethyl)oxazol-5-yl)(4-(pyrazolo[1,5-a]pyridin-2-yl)-6,7-dihydro-1H-imidazo[4,5-c]pyridin-5(4H)-yl)methanone], the AC50 is more than 5000 nM.

For `O=C(CC1(O)CCC1)N1CCc2[nH]cnc2[C@H]1c1cc2ccccn2n1` [Example 634, (S)-2-(1-hydroxycyclobutyl)-1-(4-(pyrazolo[1,5-a]pyridin-2-yl)-6,7-dihydro-1H-imidazo[4,5-c]pyridin-5(4H)-yl)ethanone], the AC50 is less than 500 nM.

Consider `O=C(CC1(O)CCC1)N1CCc2[nH]cnc2[C@@H]1c1cc2ccccn2n1` [Example 635, (R)-2-(1-hydroxycyclobutyl)-1-(4-(pyrazolo[1,5-a]pyridin-2-yl)-6,7-dihydro-1H-imidazo[4,5-c]pyridin-5(4H)-yl)ethanone], for which the AC50 was in the range of 1000 to 5000 nM.
